Values joined by “and” are separate entries in the source; they are usually repeats but may differ in a detail not shown here. Equal entries are not always repeated.
Tests used:
[1] = test system: hepatic steatosis induced by MCD diet; assay: Histological examination (H&E stain) of liver of MCD diet mice; type: in vivo, Male C57BL/6 mice; conditions: for effect on MCD diet-induced steatohepatitis (H&E staining), in words / Steatosis / Ballooning / Fibrosis / Inflammation / Scores: MCD diet mice; for effect on MCD diet-induced steatohepatitis (H&E staining), in words / Avg / Ballooning / Fibrosis / Inflammation / Sum / Scores: 100 mg/kg oral; for Avg: average of Scores of the group; for Avg / Ballooning / Fibrosis / Inflammation / Sum / Scores: PG/TPSG (1:1); for Steatosis / Ballooning / Fibrosis / Inflammation: score per animal; for Steatosis: 100 mg/kg oral once daily, 5 times a week, in PG/TPSG (1:1); for Sum: sum of Scores of the 4 animals of the group; for Scores: total score per animal
Method: (§1) Animals and experimental protocol: Male C57BL/6 mice, 4 weeks of age, were purchased from Laboratory Animal Center (Taiwan, China) were maintained under the procedures and guidelines provided by the Institutional Animal Care and Use Committee of the Health Research Institutes (Taiwan, China). They were maintained with free access to pellet food and water in stainless-steel cages at a temperature of 21±2° C. with a 12 h light/dark cycle.
(§2) Mice were randomly divided into five groups and treated as follows: (1) MCD diet+PG/TPSG (2) MCD diet+100 mg/kg all compounds. After 28 days, animals were sacrificed for the collection of blood for determination of plasma ALT and AST concentrations, and liver samples for H&E stain.
(§3) After 28 days, animals were sacrificed for the collection of blood for determination of plasma ALT and AST concentrations, and liver samples for H&E stain.

MCD diet NASH mice = assay: Serum AST and ALT of compounds treated-NASH mice (MCD diet); type: in vivo, Male C57BL/6 mice; conditions: MCD diet mice; for effect on serum concentrations of AST and ALT, in words: 100 mg/kg oral (Table 2); for Serum ALT (U/L) / Serum AST (U/L): 100 mg/kg oral, PG/TPSG (1:1)
Method: as §1, §2, §3

Row | Compound | effect on MCD diet-induced steatohepatitis (H&E staining), in words [1] | Avg [1] | Steatosis ([1]; hydrochloride, 100 mg/kg) | Ballooning [1] | Fibrosis [1] | Inflammation [1] | Sum [1] | Scores ([1]; hydrochloride, 100 mg/kg) | effect on serum concentrations of AST and ALT, in words (MCD diet NASH mice) | Serum ALT (U/L) (MCD diet NASH mice) | Serum AST (U/L) (MCD diet NASH mice) | Steatosis [1] | Scores [1] | Ballooning ([1]; hydrochloride, 100 mg/kg) | Inflammation ([1]; hydrochloride, 100 mg/kg)
1 | COc1cc(/C=C/c2ccc(OC(=O)OCCNC(=O)C(N)CC(N)=O)cc2)cc(OC)c1.Cl (stereo not shown) [Compound 5p, (E)-2-(2,4-diamino-4-oxobutanamido)ethyl (4-(3,5-dimethoxystyryl)phenyl) carbonate hydrochloride] | prevented MCD diet-induced steatohepatitis | 7.75 | 3 (3×) and 2 | 2 | 0 | 3 | 31 | 8 (3×) and 7 | significantly inhibited the serum concentrations of AST and ALT | 288.50 | 327.00 | – | – | – | –
2 | COc1cc(/C=C/c2ccc(OC(=O)OCCNC(=O)C(N)Cc3ccccc3)cc2)cc(OC)c1.Cl (stereo not shown) [Compound 5j, (E)-2-(2-amino-3-phenylpropanamido)ethyl (4-(3,5-dimethoxystyryl)phenyl) carbonate hydrochloride] | prevented MCD diet-induced steatohepatitis | 7.75 | 3 (3×) and 2 | 2 | 0 | 3 | 31 | 8 (3×) and 7 | – | 299.00 | 598.00 | – | – | – | –
3 | COc1cc(/C=C/c2ccc(OC(=O)NCCNC(=O)C(N)C(C)C)cc2)cc(OC)c1.Cl (stereo not shown) [Compound 7c, (E)-4-(3,5-dimethoxystyryl)phenyl (2-(2-amino-3-methylbutanamido)ethyl) carbamate hydrochloride] | prevented MCD diet-induced steatohepatitis | 7.75 | 3 (3×) and 2 | 2 | 0 | 3 | 31 | 8 (3×) and 7 | – | 252.13 | 435.25 | – | – | – | –
4 | COc1cc(/C=C/c2ccc(OC(=O)OCCNC(=O)C(N)C(C)O)cc2)cc(OC)c1.Cl (stereo not shown) [Compound 5h, (E)-2-(2-amino-3-hydroxybutanamido)ethyl (4-(3,5-dimethoxystyryl)phenyl) carbonate hydrochloride] | – | 8 | – | 2 | 0 | 3 | 32 | – | significantly inhibited the serum concentrations of AST and ALT | 150.75 | 301.50 | 3 | 8 | – | –
5 | COc1cc(/C=C/c2ccc(OC(=O)OCCNC(=O)C(C)N)cc2)cc(OC)c1.Cl (stereo not shown) [Compound 5b, (E)-2-(2-aminopropanamido)ethyl (4-(3,5-dimethoxystyryl)phenyl) carbonate hydrochloride] | prevented MCD diet-induced steatohepatitis | 4.5 | 2 (3×) and 3 | – | 0 | – | 19 | 5 and 4 (2×) and 6 | significantly inhibited the serum concentrations of AST and ALT | 180.88 | 235.25 | – | – | 1 (3×) and 2 | 2 and 1 (3×)
6 | COc1cc(/C=C/c2ccc(OC(=O)OCCNC(=O)C3CCCN3)cc2)cc(OC)c1.Cl (stereo not shown) [Compound 5t, (E)-4-(3,5-dimethoxystyryl)phenyl (2-(pyrrolidine-2-carboxamido)ethyl) carbonate hydrochloride] | prevented MCD diet-induced steatohepatitis | 7.75 | 3 (3×) and 2 | 2 | 0 | 3 | 31 | 8 (3×) and 7 | – | 263.00 | 370.25 | – | – | – | –
7 | COc1cc(/C=C/c2ccc(OC(=O)OCCNC(=O)C(N)CCSC)cc2)cc(OC)c1.Cl (stereo not shown) [Compound 5f, (E)-2-(2-amino-4-(methylthio)butanamido)ethyl (4-(3,5-dimethoxystyryl)phenyl) carbonate hydrochloride] | prevented MCD diet-induced steatohepatitis | 6.25 | – | – | 0 | – | 25 | – | significantly inhibited the serum concentrations of AST and ALT | 153.00 | 241.75 | 2 | 5 | 1 (3×) and 2 | 2 (3×) and 1
8 | COc1cc(/C=C/c2ccc(OC(=O)OCCNC(=O)C(N)C(C)C)c(OC)c2)cc(OC)c1.Cl (stereo not shown) [Compound 6g, (E)-2-(2-amino-3-methylbutanamido)ethyl (4-(3,5-dimethoxystyryl)-2-methoxyphenyl) carbonate hydrochloride] | prevented MCD diet-induced steatohepatitis | 7.75 | 3 (3×) and 2 | 2 | 0 | 3 | 31 | 8 (3×) and 7 | – | 260.75 | 455.25 | – | – | – | –
9 | COc1cc(/C=C/c2ccc(OC(=O)NCCNC(=O)C(N)Cc3ccccc3)cc2)cc(OC)c1.Cl (stereo not shown) [Compound 7e, (E)-4-(3,5-dimethoxystyryl)phenyl (2-(2-amino-3-phenylpropanamido)ethyl) carbamate hydrochloride] | prevented MCD diet-induced steatohepatitis | 7.75 | – | 2 | 0 | – | 31 | 8 (3×) and 7 | – | 286.75 | 477.00 | 3 | – | – | 3 (3×) and 2
10 | CCC(C)C(N)C(=O)NCCOC(=O)Oc1ccc(/C=C/c2cc(OC)cc(OC)c2)cc1.Cl (stereo not shown) [Compound 5e, (E)-2-(2-amino-3-methylpentanamido)ethyl (4-(3,5-dimethoxystyryl)phenyl) carbonate hydrochloride] | prevented MCD diet-induced steatohepatitis | 7.75 | – | 2 | 0 | – | 31 | 8 (3×) and 7 | – | 209.62 | 419.25 | 3 | – | – | 3 (3×) and 2
11 | COc1cc(/C=C/c2ccc(OC(=O)OCCNC(=O)C(N)CC(C)C)cc2)cc(OC)c1.Cl (stereo not shown) [Compound 5d, (E)-2-(2-amino-4-methylpentanamido)ethyl (4-(3,5-dimethoxystyryl)phenyl) carbonate hydrochloride] | prevented MCD diet-induced steatohepatitis | 7.75 | 3 (3×) and 2 | 2 | 0 | 3 | 31 | 8 (3×) and 7 | significantly inhibited the serum concentrations of AST and ALT | 196.13 | 392.25 | – | – | – | –
12 | COc1cc(/C=C/c2ccc(OC(=O)OCCNC(=O)C(N)CO)cc2)cc(OC)c1.Cl (stereo not shown) [Compound 5g, (E)-2-(2-amino-3-hydroxypropanamido)ethyl (4-(3,5-dimethoxystyryl)phenyl) carbonate hydrochloride] | prevented MCD diet-induced steatohepatitis | 6.5 | 3 (2×) and 2 (2×) | – | 0 | – | 26 | 8 (2×) and 5 (2×) | – | 222.13 | 444.25 | – | – | 2 (2×) and 1 (2×) | 3 (2×) and 2 (2×)
